Among the data in patent EP0236948A2, “Novel compounds WK-142 and process for preparing the same” (KITASATO KENKYUSHO, priority 1986, dated 1987) are IC50 values, retold here.

Non-standard residues stand in square brackets, D forms with d. Residues, ends and D or L forms follow the SMILES beside them. *: point of attachment. Sta = CC(C)C[C@H](N)[C@@H](O)CC(=O)O; Isovaleryl = CC(C)CC(=O)*

Assay [1] addresses T1, pepsin from coats of pig's stomach (Sus scrofa, UniProt P00791).
T1 construct: using pepsin from coats of pig's stomach (P7012 manufactured by Sigma Chemical Inc.); purchased Sigma Chemical Inc. P7012; host or cells: pig stomach mucosa
Put plainly: Pepsin-inhibiting activity (method of Anson et al). The assay is classed as biochemical. The conditions noted are these: pepsin from coats of pig's stomach (P7012, Sigma). The method, then: • (1) Pepsin-Inhibiting Activity: The pepsin-inhibiting activity was measured in terms of IC50 value according to the method of Anson et al [Journal of General Physiology 22, 79 (1938)] using pepsin from coats of pig's stomach (P7012 manufactured by Sigma Chemical Inc.).

Assay [2] relates to renin obtained from pig's kidney. The assay can be described thus: Renin-inhibiting activity (method of Ikeda et al). In kind it is biochemical.

T1 sequence (P00791 60-385): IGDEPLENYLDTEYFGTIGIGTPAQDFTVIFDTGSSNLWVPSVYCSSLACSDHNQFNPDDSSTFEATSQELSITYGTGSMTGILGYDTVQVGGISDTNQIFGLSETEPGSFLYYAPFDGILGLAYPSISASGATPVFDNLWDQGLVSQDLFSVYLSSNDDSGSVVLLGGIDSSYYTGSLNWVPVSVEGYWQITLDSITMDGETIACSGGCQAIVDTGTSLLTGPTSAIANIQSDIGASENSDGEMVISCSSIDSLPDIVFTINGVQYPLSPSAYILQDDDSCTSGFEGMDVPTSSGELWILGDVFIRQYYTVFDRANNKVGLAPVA

What is called IC50 is the concentration that gives 50% inhibition. `CC(C)CC(=O)NC(C(=O)NC(C(=O)NC(CC(C)C)C(O)CC(=O)NC(C)C(=O)NC(Cc1ccccc1)C(O)CC(=O)O)C(C)C)C(C)C` (stereo not drawn) [compound A] had a concentration for half-maximal inhibition (IC50) in assay [1] of 10 nM.
With `CC(C)CC(=O)N[C@H](C(=O)N[C@H](C(=O)N[C@@H](CC(C)C)[C@@H](O)CC(=O)N[C@@H](C)C(=O)N[C@@H](CC(C)C)[C@@H](O)CC(=O)O)C(C)C)C(C)C` [pepstatin A] (Isovaleryl-VV[Sta]A[Sta]-OH), the half-maximal inhibitory concentration (IC50) in assay [2] was determined as 470 nM; in assay [1] it was 3 nM.
